Measured values from patent publication US20190322676A1, “CERAMIDE GALACTOSYLTRANSFERASE INHIBITORS FOR THE TREATMENT OF DISEASE” (BioMarin Pharmaceutical Inc., priority 2016, published 2019).
Where a name gives a salt, the structure may show the parent alone.

Target: T1, human CGT (ceramide galactosyltransferase), CHO/CGT lysate (Homo sapiens, UniProt Q16880)
T1 construct: Full-length human CGT cDNA was cloned into the BamH1/Xho1 site of pcDNA3.1 (+); expressed in transfected cells; host or cells: Chinese hamster ovary (CHO) cells; lysate prepared with M-PER
T1 sequence (Q16880 21-541): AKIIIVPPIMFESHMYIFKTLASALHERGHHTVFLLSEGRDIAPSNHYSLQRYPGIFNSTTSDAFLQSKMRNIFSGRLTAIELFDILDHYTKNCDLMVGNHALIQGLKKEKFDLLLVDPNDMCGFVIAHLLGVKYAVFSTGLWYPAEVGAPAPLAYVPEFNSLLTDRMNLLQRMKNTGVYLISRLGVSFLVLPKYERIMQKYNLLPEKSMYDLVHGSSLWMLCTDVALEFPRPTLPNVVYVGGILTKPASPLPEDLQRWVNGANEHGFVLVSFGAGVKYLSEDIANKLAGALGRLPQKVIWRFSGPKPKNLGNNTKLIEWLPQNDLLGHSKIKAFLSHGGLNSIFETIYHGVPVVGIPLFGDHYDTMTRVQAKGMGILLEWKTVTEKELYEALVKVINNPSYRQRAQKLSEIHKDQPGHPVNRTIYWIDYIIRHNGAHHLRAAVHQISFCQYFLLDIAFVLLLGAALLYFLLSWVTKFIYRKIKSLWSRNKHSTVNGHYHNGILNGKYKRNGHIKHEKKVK
Test: CGT enzyme assay, RapidFire/MS/MS readout (Table 1 ranges with one asterisk *)
Type: biochemical
Details: RapidFire method (range with one asterisk *)
Method in brief: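 IC50s come from variable-slope dose-response fits of internal-standard-normalized C6-NBD-dihydro-galactosylceramide, measured by RapidFire/MS/MS (ESI negative). Reactions: 1 h, 37 °C, human CGT-expressing CHO lysate (4 μg), 0.001–50 μM compound, 10 μM NBD-dihydro-ceramide, 17.5 μM UDP-galactose, 0.5% DMSO, pH 7.2; 0.01% Tween 80 added for ** values.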

Row | Compound | IC50 [µM]
1 | NC1CC2CCC(C1)N2C(=O)[C@H](NC(=O)[C@H](O)c1ccc2cc(OC3CCCC3)ccc2c1)C(F)(F)c1ccc(-c2ccc(Cl)cc2)cc1 (stereo partly drawn) [Compound 136-4, (2R)—N-((2S)-3-(3-amino-8-azabicyclo[3.2.1]octan-8-yl)-1-(4′-chloro-[1,1′-biphenyl]-4-yl)-1,1-difluoro-3-oxopropan-2-yl)-2-(6-(cyclopentyloxy)naphthalen-2-yl)-2-hydroxyacetamide trifluoroacetate] | 30 to 100
2 | COc1cc(C(F)(F)[C@H](NS(=O)(=O)c2ccc3cc(OC4CCCC4)ccc3c2)C(=O)N2C3CCC2CC(N)C3)ccc1Cl (stereo partly drawn) [Compound 124-1, N-((2R)-3-(3-amino-8-azabicyclo[3.2.1]octan-8-yl)-1-(4-chloro-3-methoxyphenyl)-1,1-difluoro-3-oxopropan-2-yl)-6-(cyclopentyloxy)naphthalene-2-sulfonamide] | < 1
3 | CCCCOc1cc(C(F)(F)[C@@H](NS(=O)(=O)c2ccc3cc(OC4CCCC4)ccc3c2)C(=O)N2CCC(N)CC2)ccc1Cl [Compound 126-2, (S)—N-(3-(4-aminopiperidin-1-yl)-1-(3-butoxy-4-chlorophenyl)-1,1-difluoro-3-oxopropan-2-yl)-6-(cyclopentyloxy)naphthalene-2-sulfonamide] | 1 to 10
4 | NC1CCN(C(=O)[C@@H](NS(=O)(=O)c2ccc3c(cnn3CC3CCCC3)c2)C(F)(F)c2ccc(C(F)(F)F)cc2)CC1 [Compound 93-1, (R)—N-(3-(4-aminopiperidin-1-yl)-1,1-difluoro-3-oxo-1-(4-(trifluoromethyl)phenyl)propan-2-yl)-1-(cyclopentylmethyl)-1H-indazole-5-sulfonamide] | 1 to 10
5 | CCCCOc1cc(C(F)(F)[C@@H](NS(=O)(=O)c2ccc3cc(OC4CCCC4)ccc3c2)C(=O)N2C3CCC2CC(N)C3)ccc1Cl (stereo partly drawn) [Compound 118-2, N-((2S)-3-(3-amino-8-azabicyclo[3.2.1]octan-8-yl)-1-(3-butoxy-4-chlorophenyl)-1,1-difluoro-3-oxopropan-2-yl)-6-(cyclopentyloxy) naphthalene-2-sulfonamide] | 1 to 10
6 | NC1CC2CCC(C1)N2C(=O)[C@H](NS(=O)(=O)c1ccc2cc(OC3CCCC3)ccc2c1)C(F)(F)c1cccc(Br)c1 (stereo partly drawn) [Compound 65-2, N-((2S)-3-(3-amino-8-azabicyclo[3.2.1]octan-8-yl)-1-(3-bromophenyl)-1,1-difluoro-3-oxopropan-2-yl)-6-(cyclopentyloxy)naphthalene-2-sulfonamide] | 10 to 30
7 | CCCCOc1ccc(C(F)(F)[C@H](C(=O)N2CCC(N)CC2)N(C)S(=O)(=O)c2ccc(OCC3CCCCC3)cc2)cc1 [Compound 58-2, (S)—N-(3-(4-aminopiperidin-1-yl)-1-(4-butoxyphenyl)-1,1-difluoro-3-oxopropan-2-yl)-4-(cyclohexylmethoxy)-N-methylbenzenesulfonamide] | 10 to 30
8 | CN([C@H](C(=O)N1C2CCC1CC(N)C2)C(F)(F)c1cccc(Br)c1)S(=O)(=O)c1ccc2cc(OC3CCCC3)ccc2c1 (stereo partly drawn) [Compound 67-1, N-((2R)-3-(3-amino-8-azabicyclo[3.2.1]octan-8-yl)-1-(3-bromophenyl)-1,1-difluoro-3-oxopropan-2-yl)-6-(cyclopentyloxy)-N-methylnaphthalene-2-sulfonamide] | 1 to 10
9 | NC1CCN(C(=O)[C@@H](NS(=O)(=O)c2ccc3cc(OC4CCCC4)ccc3c2)C(F)(F)c2ccc(-c3ccccc3)cc2)CC1 [Compound 43-1, (R)—N-(1-([1,1′-biphenyl]-4-yl)-3-(4-aminopiperidin-1-yl)-1,1-difluoro-3-oxopropan-2-yl)-6-(cyclopentyloxy)naphthalene-2-sulfonamide] | < 1
10 | NC1CCN(C(=O)[C@@H](NC(=O)C(=O)c2ccc(OCC3CCCCC3)cc2)C(F)(F)c2ccc(-c3ccc(Cl)cc3)cc2)CC1 [Compound 134-1, (R)—N-(3-(4-aminopiperidin-1-yl)-1-(4′-chloro-[1,1′-biphenyl]-4-yl)-1,1-difluoro-3-oxopropan-2-yl)-2-(4-(cyclohexylmethoxy)phenyl)-2-oxoacetamide trifluoroacetate] | 10 to 30
11 | NC1CC2CCC(C1)N2C(=O)[C@H](NS(=O)(=O)c1ccc(OCC2CCCCC2)cc1)C(F)(F)c1ccc(Cl)cc1 (stereo partly drawn) [Compound 29-2, N-((2S)-3-(3-amino-8-azabicyclo[3.2.1]octan-8-yl)-1-(4-chlorophenyl)-1,1-difluoro-3-oxopropan-2-yl)-4-(cyclohexylmethoxy) benzenesulfonamide trifluoroacetate] | 1 to 10
12 | CC(C)N([C@H](C(=O)N1C2CCC1CC(N)C2)C(F)(F)c1ccc(Br)cc1)S(=O)(=O)c1ccc2cc(OC3CCCC3)ccc2c1 (stereo partly drawn) [Compound 76-1, N-((2R)-3-(3-amino-8-azabicyclo[3.2.1]octan-8-yl)-1-(4-bromophenyl)-1,1-difluoro-3-oxopropan-2-yl)-6-(cyclopentyloxy)-N-isopropylnaphthalene-2-sulfonamide] | 10 to 30
13 | NC1CC2CCC(C1)N2C(=O)[C@H](NS(=O)(=O)c1ccc2c(cnn2CC2CCCC2)c1)C(F)(F)c1ccc(-c2ccc(Cl)cc2)cc1 (stereo partly drawn) [Compound 94-2, N-((2S)-3-(3-amino-8-azabicyclo[3.2.1]octan-8-yl)-1-(4′-chloro-[1,1′-biphenyl]-4-yl)-1,1-difluoro-3-oxopropan-2-yl)-1-(cyclopentylmethyl)-1H-indazole-5-sulfonamide] | 10 to 30
14 | NC1CC2CCC(C1)N2C(=O)[C@H](NS(=O)(=O)c1ccc(OCC2CCCCC2)cc1)C(F)(F)c1ccc(-c2ccc(Cl)cc2)cc1 (stereo partly drawn) [Compound 50-2, N-((2S)-3-(3-amino-8-azabicyclo[3.2.1]octan-8-yl)-1-(4′-chloro-[1,1′-biphenyl]-4-yl)-1,1-difluoro-3-oxopropan-2-yl)-4-(cyclohexylmethoxy)benzenesulfonamide trifluoroacetate] | 10 to 30
15 | CCCCOc1cc(C(F)(F)[C@H](NS(=O)(=O)c2ccc(OCC3CCCCC3)cc2)C(=O)N2C3CCC2CC(N)C3)ccc1Cl (stereo partly drawn) [Compound 120-1, N-((2R)-3-(3-amino-8-azabicyclo[3.2.1]octan-8-yl)-1-(3-butoxy-4-chlorophenyl)-1,1-difluoro-3-oxopropan-2-yl)-4-(cyclohexylmethoxy) benzenesulfonamide] | < 1
16 | CN([C@H](C(=O)N1C2CCC1CC(N)C2)C(F)(F)c1ccc(-c2ccccc2)cc1)S(=O)(=O)c1ccc2cc(OC3CCCC3)ccc2c1 (stereo partly drawn) [Compound 49-1, N-((2R)-1-([1,1′-biphenyl]-4-yl)-3-(3-amino-8-azabicyclo[3.2.1]octan-8-yl)-1,1-difluoro-3-oxopropan-2-yl)-6-(cyclopentyloxy)-N-methylnaphthalene-2-sulfonamide] | 1 to 10
17 | CN([C@@H](C(=O)N1C2CCC1CC(N)C2)C(F)(F)c1ccc(Oc2ccccc2)cc1)S(=O)(=O)c1ccc(OCC2CCCCC2)cc1 (stereo partly drawn) [Compound 85-2, N-((2S)-3-(3-amino-8-azabicyclo[3.2.1]octan-8-yl)-1,1-difluoro-3-oxo-1-(4-phenoxyphenyl)propan-2-yl)-4-(cyclohexylmethoxy)-N-methylbenzenesulfonamide trifluoroacetate] | 10 to 30
18 | NC1CC2CCC(C1)N2C(=O)[C@@H](NS(=O)(=O)c1ccc2cc(OC3CCCC3)ccc2c1)C(F)(F)c1cccc(-c2ccccc2)c1 (stereo partly drawn) [Compound 66-1, N-((2R)-1-([1,1′-biphenyl]-3-yl)-3-(3-amino-8-azabicyclo[3.2.1]octan-8-yl)-1,1-difluoro-3-oxopropan-2-yl)-6-(cyclopentyloxy)naphthalene-2-sulfonamide] | < 1
19 | NC1CC2CCC(C1)N2C(=O)[C@@H](NS(=O)(=O)c1ccc2nn(CC3CCCC3)cc2c1)C(F)(F)c1ccc(Br)cc1 (stereo partly drawn) [Compound 77-1, N-((2R)-3-(3-amino-8-azabicyclo[3.2.1]octan-8-yl)-1-(4-bromophenyl)-1,1-difluoro-3-oxopropan-2-yl)-2-(cyclopentylmethyl)-2H-indazole-5-sulfonamide] | 1 to 10
20 | CC(C)Oc1ccc2cc(S(=O)(=O)N[C@H](C(=O)N3C4CCC3CC(N)C4)C(F)(F)c3ccc(-c4ccccc4)cc3)ccc2c1 (stereo partly drawn) [Compound 31-1, N-((2R)-1-([1,1′-biphenyl]-4-yl)-3-(3-amino-8-azabicyclo[3.2.1]octan-8-yl)-1,1-difluoro-3-oxopropan-2-yl)-6-isopropoxynaphthalene-2-sulfonamide trifluoroacetate] | 1 to 10
21 | CCCCOc1ccc(C(F)(F)[C@@H](C(=O)N2CCC(N)CC2)N(C)S(=O)(=O)c2ccc3cc(OC4CCCC4)ccc3c2)cc1 [Compound 53-1, (R)—N-(3-(4-aminopiperidin-1-yl)-1-(4-butoxyphenyl)-1,1-difluoro-3-oxopropan-2-yl)-6-(cyclopentyloxy)-N-methylnaphthalene-2-sulfonamide] | 1 to 10
22 | NC1CCN(C(=O)[C@H](NC(=O)C(=O)c2ccc(OCC3CCCCC3)cc2)C(F)(F)c2ccc(-c3ccc(Cl)cc3)cc2)CC1 [Compound 134-2, (S)—N-(3-(4-aminopiperidin-1-yl)-1-(4′-chloro-[1,1′-biphenyl]-4-yl)-1,1-difluoro-3-oxopropan-2-yl)-2-(4-(cyclohexylmethoxy)phenyl)-2-oxoacetamide trifluoroacetate] | 30 to 100
